From PMC10901950, “Neuroprotective and Anti-inflammatory Effects of Rubiscolin-6 Analogs with Proline Surrogates in Position 2” (Neurochemical Research, 2023)
Square brackets hold non-standard residues; d marks the D form. Ends that are not written are not given here. Peptide text beside a SMILES is read from it. Dmt = Cc1cc(O)cc(C)c1C[C@H](N)C(=O)O; Inp = O=C(O)C1CCNCC1

Key:
SH-SY5Y cells [1] = experiment: Mitochondrial membrane potential (JC-1) in 6-OHDA-treated SH-SY5Y cells; assay type: cell-based, human; details: 6-OHDA 100 µM, 6 h
Experimental: Mitochondrial function was assessed by monitoring changes in MMP (∆Ψm) using the fluorescent probe, JC-1 fluorescence dye (5,5′,6,6′-tetrachloro-1,1′,3,3′-tetraethyl-imidacarbocyanine iodide, Molecular Probes, T3168, Eugene, Oregon, USA). The assay was performed according to the method described by Silva et al.. Briefly, SH-SY5Y cells were exposed 6 h to 6-OHDA (100 μM) in the presence or absence of peptides. After incubation, cells were washed with ice-cold PBS, and then JC-1 reagent (3 µM, 200 µL) was added for 15 min at 37 °C. Afterwards, JC-1 was removed, and cells were washed with PBS. The formation of JC-1 aggregates (490 nm of excitation and 590 nm of emission) and the monomeric form of JC-1 (490 nm of excitation and 530 nm of emission) was accompanied simultaneously in the plate reader for 30 min. Results were expressed as the ratio of the monomers/aggregates of JC-1 in the percentage of control.

mTOR = experiment: Western blot, mTOR phosphorylation in 6-OHDA-treated SH-SY5Y cells; assay type: cell-based, human; details: peptide 1 and 10 µM, 24 h
Experimental: The neuroblastoma SH-SY5Y cells were grown in a 6-well plate and when 80–90% confluent treated with 6-OHDA (100 µM) for 24 h. Then cells were stimulated with peptides for 2.5, 5, 7.5 and 10 min (for AKT) or 24 h (for mTOR). When needed, a 30 min pre-incubation step with LY 294002 was included before analogs and 6-OHDA addition. Stimulation was terminated by aspiration of the medium. Cells were washed 2 times with ice-cold PBS, and then 200 µL of ice-cold lysis buffer [150 mM NaCl, 20 mM Tris–HCl, glycerol, 5 mM EDTA, 0.5 mM phenylmethylsulphonylfluoride (PMSF), 10% Triton X-100, 100 mM protease inhibitors, pH 7.4] was added. Cells were incubated on ice for 15 min. Lysates were then centrifuged at 12,000×g for 10 min at 4 °C, and the supernatants were used as the total cell lysates. The protein content in the supernatants was quantified using the Bio-Rad protein assay kit. […] Following six washes with TBS-T, the protein bands were detected with the Clarity Western ECL reagent from Bio-Rad. The band intensity was quantified by NIH ImageJ densitometric analysis. For quantification, specific phosphorylation was calculated as the ratio of phosphorylated AKT or mTOR signals to the total Akt or mTOR signal detected. […]

[2] = Ferric reducing antioxidant power (FRAP); details: peptides 10 µM, 37 °C, 30 min, absorbance 593 nm; mean ± SEM
Experimental: FRAP assay adapted to microscale with minor modifications was used to measure the ferric reducing ability of peptides. Acetate buffer (0.3 M, pH 3.6), 2,4,6-Tris(2-pyridyl)-s-triazine (TPTZ, 10 mM prepared in 40 mM HCl), and ferric solutions (20 mM) were freshly mixed at a ratio of 10:1:1 and place in a 96-well microplate. Then, 198 µL of FRAP reagent and 2 µL of the peptide sample was mixed and incubated at 37 °C in the dark for 30 min. The absorbance was measured at 593 nm using a microplate reader (Bioteck, Epoch/2 microplate reader, Winooski, VT, USA). The difference between the absorbance of the test sample and the blank reading was calculated and expressed as µM of FeSO4/g of the peptide. FeSO4 was used as standard.

SH-SY5Y cells [3] = experiment: Cytotoxicity on SH-SY5Y cells (MTT); assay type: cell-based, human; details: 10 µM, 24 h
Experimental: The neuroprotective experiments were performed in an in vitro model of a human neuroblastoma cell line (SH-SY5Y) obtained from the German Collection of Microorganisms and Cell Cultures GmbH (DSMZ) Bank (ACC 209). Cells were cultured in Dulbecco’s Modified Eagle’s Medium: Nutrient Mixture F12 (DMEM:F12) supplemented with 1% antibiotic/antimycotic (Amphotericin B, Penicillin and Streptomycin) (Biowest, Nuaillé, France) and 10% (v/v) Fetal Bovine Serum (FBS) (Biowest, Riverside, MO, USA). The anti-inflammatory experiments were performed in an in vitro model of mouse macrophage-like RAW 264.7 cells, purchased from American Type Culture Collection (ATCC, Manassas, VA, USA). Cells were maintained in DMEM medium (Gibco™, Grand Island, NY) and supplemented with 10% bovine calf serum (BCS) (Gibco™, Grand Island, NY) and 1% penicillin–streptomycin (Sigma-Aldrich, St. Louis, MO, USA). Cell cultures were kept at 37 °C in 5% CO2/humidified air.
Cells were incubated with peptides (0.1–10 µM) for 24 h to assess their cytotoxic activity. […] The resulting absorbance was read in a microplate reader (Biotek, Epoch/2 microplate reader, Winooski, VT, USA) at 570 nm.
Cell metabolic activity (cytotoxicity) was calculated as the percentage of the value obtained for cells incubated with compounds compared to control cells treated with the medium.

Molecule	phosphorylated mTOR compared with the 6-OHDA-injured group (mTOR)	FRAP, ability to reduce iron ions [2]	further results
Cc1cc(O)cc(C)c1C[C@H](N)C(=O)N1CCC[C@H]1C(=O)N[C@@H](CC(C)C)C(=O)N[C@@H](CC(=O)O)C(=O)N[C@@H](CC(C)C)C(=O)N[C@@H](Cc1ccccc1)C(=O)O [analog 1, Dmt-Pro-Leu-Asp-Leu-Phe-OH] (H-[Dmt]PLDLF-OH)	–	–	effect on MMP depolarization (SH-SY5Y cells [1]; peptide 10 µM): couldn’t decrease
Cc1cc(O)cc(C)c1C[C@H](N)C(=O)N1CCC(C(=O)N[C@@H](CC(C)C)C(=O)N[C@@H](CC(=O)O)C(=O)N[C@@H](CC(C)C)C(=O)N[C@@H](Cc2ccccc2)C(=O)O)CC1 [analog 5, Dmt-Inp-Leu-Asp-Leu-Phe-OH] (H-[Dmt][Inp]LDLF-OH)	significant increase	–	–
CC(C)C[C@H](NC(=O)C1CCN(C(=O)[C@@H](N)Cc2ccc(O)cc2)CC1)C(=O)N[C@@H](CC(=O)O)C(=O)N[C@@H](CC(C)C)C(=O)N[C@@H](Cc1ccccc1)C(N)=O [analog 7, Tyr-Inp-Leu-Asp-Leu-Phe-NH2] (H-Y[Inp]LDLF-NH2)	significant increase	–	–
YPLDLF [R-6, rubiscolin-6]	–	1.09 ± 0.20 µM Eq. FeSO4/g of peptide	effect on MMP changes caused by the neurotoxin (SH-SY5Y cells [1]; peptide 0.1-10 µM): markedly decreased
YPLDLF-NH2 [analog 6, Tyr-Pro-Leu-Asp-Leu-Phe-NH2]	–	0.87 ± 0.22 µM Eq. FeSO4/g of peptide	SH-SY5Y cell viability (cytotoxicity) (SH-SY5Y cells [3]): significantly decreased
